Source: patent US20250109139A1, “TRICYCLIC COMPOUND, AND PREPARATION METHOD THEREFOR AND USE THEREOF” (SHANGHAITECH UNIVERSITY, priority 2022, published 2025)

Columns and labels:
[1] = biological target: T1, 5-hydroxytryptamine 1A (5-HT1A) receptors (Homo sapiens (Human), UniProt P08908); experiment: 5-HT1A receptor β-arrestin2 BRET (recruitment); assay type: cell-based; conditions: for Emax: relative to endogenous ligand 5-hydroxytryptamine
Protocol: At the same time, in order to examine the downstream β-arrestin2 signaling pathway mediated by 5-HT1A receptors, on the first day, a 6 cm culture dish was used for transfection with 500 ng of 5-HT1A receptors containing C-terminal seaweed luciferase (5HT1AR-Rluc), 500 ng of G protein-coupled receptor kinase 2 (GRK2), 2500 ng of β-arrestin2 containing N-terminal green fluorescent protein (GFP2-ARRB2), and 14 μL of PEI. The next day, the confluent cells of a 6 cm culture dish were digested and reseeded into a 96-well plate with 100 μL of culture medium added to each well. On the third day, the drugs were added for test. The 96-well plate was taken out from the cell incubator to decant the culture medium, 40 µL of the substrate coelenterazine 400a (final concentration of 5 μM) was added to each well, and then 20 μL of different drugs were added sequentially from left to right to ensure that the final concentration of the drug decreased gradually from bottom to top, with two replicates per treatment. Finally, the prepared samples were loaded on machine for test. The machine readout value reflected the recruitment of β-arrestin2 to the membrane or the dissociation of G protein trimer. The former indicated the degree of activation of the β-arrestin2 signaling pathway downstream of the 5-HT1 serotonin 1A receptors, and the latter indicated the degree of activation of the G protein signaling pathway downstream of the serotonin 1A receptors.

[2] = biological target: 5-HT2A receptors (Homo sapiens (Human), UniProt P28223); experiment: 5-HT2A receptor radioligand competition binding assay ([3H]-ketanserin); conditions: for Ki: read-out: Ki
5-HT2A receptors, sequence (P28223 whole entry): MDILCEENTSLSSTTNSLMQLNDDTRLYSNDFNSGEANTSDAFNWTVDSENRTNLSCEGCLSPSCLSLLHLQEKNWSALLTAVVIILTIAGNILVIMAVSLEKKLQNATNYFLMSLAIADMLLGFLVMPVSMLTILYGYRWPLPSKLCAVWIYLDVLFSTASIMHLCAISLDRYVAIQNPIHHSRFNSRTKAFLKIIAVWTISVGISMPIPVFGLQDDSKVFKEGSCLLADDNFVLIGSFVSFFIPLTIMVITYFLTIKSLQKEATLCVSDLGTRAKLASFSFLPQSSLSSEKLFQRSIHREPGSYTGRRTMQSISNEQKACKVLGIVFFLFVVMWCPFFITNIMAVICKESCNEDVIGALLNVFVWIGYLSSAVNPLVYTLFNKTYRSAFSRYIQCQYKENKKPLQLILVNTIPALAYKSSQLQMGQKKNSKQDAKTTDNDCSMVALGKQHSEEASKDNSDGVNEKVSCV
Protocol: The affinity of the compounds of the present disclosure for 5-HT2A receptors was determined by a radioligand competition binding assay. In the first step, a cell membrane component containing specific 5-HT2A receptor was prepared. A 10 cm dish was used for transfection with […] of 5-HT2A receptors and 40 μL of PEI. After 48 hours, the 10 cm dish was taken out from the cell incubator and the cultured cells had expressed the 5-HT2A receptors. A vacuum pump was used to suck off the culture medium, 3 mL of lysis buffer was added to each culture dish, and the cells were placed in a 4° C. cold room for 10 minutes. After the cells were detached, the cells were transferred to a 15 mL centrifuge tube and centrifuged at 1500 rpm for 5 minutes at 4° C., and the supernatant was discarded. The cell pellet was transferred to a tissue homogenizer, and 3 mL of lysis buffer was added and fully ground until the cells were broken. Then, cell suspension was equally aliquoted into several EP tubes, centrifuged at 12000 rpm for 5 minutes at 4° C., and the supernatant was discarded. The precipitate was the cell membrane component containing the 5-HT2A receptors. […] First, a standard binding buffer was added to the cell membrane component containing the 5-HT2A receptors, and the cell membrane was disrupted and resuspended with an electric tissue homogenizer. 30 μL of membrane protein suspension was added to each well of a 96-well plate. Then, 30 μL of different drugs were added to the 96-well plate sequentially from bottom to top to ensure that the final drug concentrations were 10^−5 M, 10^−6 M, 10^−7 M, 10^−8 M, 10^−9 M, and 0 M, with two replicates per treatment. Next, 30 μL of [^3H]-ketanserin was added to each well of the 96-well plate. The plate was incubated at room temperature in the dark for 2 hours. Detection was conducted. The machine readout value reflected the amount of [^3H]-ketanserin bound on the membrane, and after further data processing, the affinity Ki values of different compounds for the 5-HT2A receptors were obtained.

[3] = system: MK801-induced hyperlocomotion in mice; experiment: Open field test, MK801-induced hyperlocomotion (schizophrenia-like model); assay type: in vivo, C57B6 male mice
Protocol: Experimental method: The experimental animals were C57B6 male mice, n=8 in each group. In this model, C57B6 mice were used as experimental animals. Hyperlocomotion of the mice in open field was induced by acute injection of a NMDA antagonist MK801, and modeled to test the inhibitory effect of different compounds on hyperlocomotion phenotype induced by MK801 All mouse behavior experiments were carried out during the light period. The whole process was recorded by the camera, and locomotive data were tracked and analyzed by behavioral tracking software. The compounds were administered intraperitoneally. Immediately after the injection, the mice entered the open field and their movement trajectories were recorded by the camera. After 30 minutes, the mice received 0.2 mg/kg of MK801 by intraperitoneal injection and returned to the open field immediately after administration, and the movement trajectories were further recorded for 120 minutes. The accumulative travelled distance of the mice was counted in a 5-minute bin. Data statistics were performed using Student-t-test analysis, *p<0.05, **p<0.01, ***p<0.001, ****p<0.0001. The total travelled distance of the mice in the 0-45 minute interval after administration of the compounds of the present disclosure at different doses in combination with MK801 (0.2 mg/kg) is shown in Table 10.

[4] = biological target: T1, 5-hydroxytryptamine 1A (5-HT1A) receptors; experiment: 5-HT1A receptor radioligand competition binding assay ([3H]-LSD); conditions: 293T membranes, read-out: Affinity Ki
Protocol: The affinity of the compounds of the present disclosure for 5-hydroxytryptamine 1A (5-HT1A) receptors was determined by a radioligand competition binding assay.
In the first step, a cell membrane component containing specific 5-HT1A receptors was prepared. […] A vacuum pump was used to suck off the culture medium, 3 mL of lysis buffer was added to each culture dish, and the cells were placed in a 4° C. cold room for 10 minutes. After the cells were detached, the cells were transferred to a 15 mL centrifuge tube and centrifuged at 1500 rpm for 5 minutes at 4° C., and the supernatant was discarded. The cell pellet was transferred to a tissue homogenizer, and 3 mL of lysis buffer was added and fully ground until the cells were broken. Then, cell suspension was equally aliquoted into several EP tubes, centrifuged at 12000 rpm for 5 minutes at 4° C., and the supernatant was discarded. The precipitate was the cell membrane component containing the 5-HT1A receptors.
First, a standard binding buffer was added to the cell membrane component containing the 5-HT1A receptors, and the cell membrane was disrupted and resuspended with an electric tissue homogenizer. 30 μL of membrane protein suspension was added to each well of a 96-well plate. Then, 30 μL of different drugs were added to the 96-well plate sequentially from bottom to top to ensure that the final drug concentrations were 10^−5 M, 10^−6 M, 10^−7 M, 10^−8 M, 10^−9 M, and 0 M, with two replicates per treatment. Next, 30 μL of [^3H]-LSD was added to each well of the 96-well plate. The plate was incubated at room temperature in the dark for 2 hours. Detection was conducted. The machine readout value reflected the amount of [^3H]-LSD bound on the membrane, and after further data processing, the binding affinity Ki values of different compounds for the 5-HT1A receptors were obtained.

[5] = biological target: T2, dopamine D2 receptors (Homo sapiens (Human), UniProt P14416); experiment: Dopamine D2 receptor Gαi1 BRET (G protein trimer dissociation); assay type: cell-based; conditions: for Emax: relative to endogenous ligand dopamine, read-out: Gαi1 BRET Emax % ± SEM; for EC50: unit printed only in Cariprazine cell, read-out: Gαi1 BRET EC50
T2 sequence (P14416 whole entry): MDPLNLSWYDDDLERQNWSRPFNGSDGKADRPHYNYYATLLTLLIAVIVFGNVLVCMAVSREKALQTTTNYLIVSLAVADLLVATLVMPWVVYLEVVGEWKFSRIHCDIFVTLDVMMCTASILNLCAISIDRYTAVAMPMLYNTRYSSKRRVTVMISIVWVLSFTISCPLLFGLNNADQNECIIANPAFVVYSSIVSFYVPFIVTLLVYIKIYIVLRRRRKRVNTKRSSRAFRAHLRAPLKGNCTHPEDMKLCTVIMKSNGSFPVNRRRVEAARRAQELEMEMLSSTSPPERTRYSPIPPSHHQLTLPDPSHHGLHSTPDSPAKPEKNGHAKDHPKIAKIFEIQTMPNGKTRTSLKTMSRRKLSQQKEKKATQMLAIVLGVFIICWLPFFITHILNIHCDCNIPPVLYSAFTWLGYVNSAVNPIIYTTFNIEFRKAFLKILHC
Method in brief: (§1)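 G-protein assay: cells co-transfected with D2 receptor, Gαi1-Rluc, Gβ3 and Gγ9-GFP (1 μg each); β-arrestin2 assay: D2-Rluc, GRK2 and GFP2-β-arrestin2 co-transfected. Cells were reseeded after one day and tested on day three. Drug dilution series were added in duplicate with coelenterazine 400a (5 μM final), and the BRET signal was read.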

[6] = biological target: T1, 5-hydroxytryptamine 1A (5-HT1A) receptors; experiment: 5-HT1A receptor Gαi1 BRET (G protein trimer dissociation); assay type: cell-based; conditions: relative to endogenous ligand 5-hydroxytryptamine
[7] = biological target: T2, dopamine D2 receptors; experiment: Dopamine D2 receptor β-arrestin2 BRET (recruitment); assay type: cell-based; conditions: for Emax: relative to endogenous ligand dopamine, read-out: β-arrestin2 BRET Emax % ± SEM; for EC50: unit printed only in Cariprazine cell, read-out: β-arrestin2 BRET EC50
Method in brief: as §1

[8] = biological target: T2, dopamine D2 receptors; experiment: Dopamine D2 receptor radioligand competition binding assay ([3H]-Methylspiperone); conditions: [3H]-Methylspiperone 0.3 to 0.5 nM, 293T membranes; read-out: Affinity Ki
Method in brief: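 Membranes from cells transfected with human D2 receptor, PEI-mediated; competition with [3H]-methylspiperone for 2 h at room temperature in the dark.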

[9] = [3H]-ketanserin, 293T membranes

T1 sequence (P08908 whole entry): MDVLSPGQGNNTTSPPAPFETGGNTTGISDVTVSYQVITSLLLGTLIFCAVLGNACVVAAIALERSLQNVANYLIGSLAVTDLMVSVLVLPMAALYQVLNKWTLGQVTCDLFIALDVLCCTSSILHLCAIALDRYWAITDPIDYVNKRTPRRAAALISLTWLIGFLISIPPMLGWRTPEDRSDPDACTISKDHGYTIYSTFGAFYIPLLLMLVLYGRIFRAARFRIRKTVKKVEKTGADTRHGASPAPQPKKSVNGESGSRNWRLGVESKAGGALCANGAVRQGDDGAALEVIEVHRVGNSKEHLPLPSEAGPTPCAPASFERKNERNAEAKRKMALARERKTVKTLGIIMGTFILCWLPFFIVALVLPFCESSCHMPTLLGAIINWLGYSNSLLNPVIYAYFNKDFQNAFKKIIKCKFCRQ

Structure (SMILES)	Ki [4]	Emax [6]	Emax [7]	EC50 [7]	Emax [1]	further results
CN(C)C(=O)N[C@H]1CC[C@H](CCN2CCN(c3cccc(Cl)c3Cl)CC2)CC1 [Cariprazine, reference compound]	–	–	–	–	–	β-arrestin2 BRET EC50 [1]: Inactive
COc1cccc2c3c(oc12)CN(CCCCOc1ccc2c(c1)NC(=O)CC2)CC3 [I-A2, 7-(4-(8-methoxy-3,4-dihydrobenzofuro[2,3-c]pyridin-2(1H)-yl)butoxy)-3,4-dihydroquinolin-2(1H)-one]	–	–	–	–	–	affinity for 5-HT2A receptors (in words) [2]: very weak affinity; pKi ± SEM [2, 9]: (5.95 ± 0.05); Ki [2, 9]: 1110 nM; Distance travelled in 45 minutes ([3]; MK801 0.2 mg/kg + compound 1 mg/kg i.p.): 8795.03 cm; Distance travelled in 45 minutes ([3]; MK801 0.2 mg/kg + compound 4 mg/kg i.p.): 6152.62 cm; Distance travelled in 45 minutes ([3]; MK801 0.2 mg/kg + compound 16 mg/kg i.p.): 3028.99 cm
CCOc1cccc2c3c(oc12)CN(CCc1ccc2ccc(=O)[nH]c2c1)CC3 [I-A27, 7-(2-(8-ethoxy-3,4-dihydrobenzofuro[2,3-c]pyridin-2(1H)-yl)ethyl)quinolin-2(1H)-one]	0.64 nM	64.1%	101%	55 nM	–	Emax [5]: 57%; EC50 [5]: 45.2 nM
CCOc1cccc2c3c(oc12)CN(CCCCOc1ccc2ccc(=O)[nH]c2n1)CC3 [I-A29, 7-(4-(8-ethoxy-3,4-dihydrobenzofuro[2,3-c]pyridin-2(1H)-yl)butoxy)-1,8-naphthyridin-2(1H)-one]	–	90.3%	47%	10.1 nM	8.46%	affinity for 5-HT2A receptors (in words) [2]: very weak affinity; Ki [2, 9]: 5520 nM; Emax [5]: 40%; EC50 [5]: 33.1 nM; Ki [8]: 27.7 nM
CCOc1cccc2c3c(oc12)CN(CCNC(=O)C1CCCC1)CC3 [I-A33, N-(2-(8-ethoxy-3,4-dihydrobenzofuro[2,3-c]pyridin-2(1H)-yl)ethyl)cyclopentanecarboxamide]	–	96.7%	18%	56.7 nM	25.2%	–
CCOc1cccc2c3c(oc12)CN(CCNC(=O)c1ccccc1)CC3 [I-A35, N-(2-(8-ethoxy-3,4-dihydrobenzofuro[2,3-c]pyridin-2(1H)-yl)ethyl)benzamide]	–	102%	17%	3.17 nM	39.8%	–
CCOc1cccc2c3c(oc12)CN(CCNC(=O)c1cccs1)CC3 [I-A36, N-(2-(8-ethoxy-3,4-dihydrobenzofuro[2,3-c]pyridin-2(1H)-yl)ethyl)thiophene-2-carboxamide]	–	100%	12%	0.75 nM	38.7%	–
CCOc1cccc2c3c(oc12)CN(CCN1CCc2nn(C)c(C)c2C1=O)CC3 [I-A39, 5-(2-(8-ethoxy-3,4-dihydrobenzofuro[2,3-c]pyridin-2(1H)-yl)ethyl)-2,3-dimethyl-2,5,6,7-tetrahydro-4H-pyrazolo[4,3-c]pyridin-4-one]	–	82.2%	–	–	20.6%	–
CCOc1cccc2c3c(oc12)CN(CCN1CCCc2ccccc2C1=O)CC3 [I-A40, 2-(2-(8-ethoxy-3,4-dihydrobenzofuro[2,3-c]pyridin-2(1H)-yl)ethyl)-2,3,4,5-tetrahydro-1H-benzo[c]azepin-1-one]	–	101%	–	–	28.9%	–
CCOc1cccc2c3c(oc12)CN(CCN1CCCc2c(ccn2C)C1=O)CC3 [I-A41, 5-(2-(8-ethoxy-3,4-dihydrobenzofuro[2,3-c]pyridin-2(1H)-yl)ethyl)-1-methyl-5,6,7,8-tetrahydropyrrolo[3,2-c]azepin-4(1H)-one]	0.78 nM	98.8%	–	–	14.3%	–
CCOc1cccc2c3c(oc12)CN(CCN1CCCc2c(cnn2C)C1=O)CC3 [I-A42, 5-(2-(8-ethoxy-3,4-dihydrobenzofuro[2,3-c]pyridin-2(1H)-yl)ethyl)-1-methyl-5,6,7,8-tetrahydropyrazolo[4,3-c]azepin-4(1H)-one]	0.42 nM	101%	–	–	21%	–
CCOc1cccc2c3c(oc12)CN(CCCCn1ncc(=O)n(C)c1=O)CC3 [I-A43, 2-(4-(8-ethoxy-3,4-dihydrobenzofuro[2,3-c]pyridin-2(1H)-yl)butyl)-4-methyl-1,2,4-triazine-3,5(2H,4H)-dione]	0.015 nM	84.3%	21%	48.8 nM	–	–
COc1cccc2c1cc1n2CCN(CCNC(=O)C2CCOCC2)C1 [I-C8, N-(2-(9-methoxy-3,4-dihydropyrazino[1,2-a]indol-2(1H)-yl)ethyl)tetrahydro-2H-pyran-4-carboxamide]	–	81%	–	–	79%	Ki [8]: 239 nM
